Consider ten compounds from patent US9067892B2, “Spiroheterocyclic N-oxypiperidines as pesticides” (Syngenta Crop Protection, Inc., priority 2008, dated 2015).

Data set [1] concerns Myzus persicae (green peach aphid). Nature of the data set: Example B14: drench activity against Myzus persicae in field soil, persistence, comparison with state of the art. The data set is classed as in vivo. Conditions: for mortality at 12.5 ppm: Myzus persicae, soil, pepper plants in field soil, read-out: Mortality (%) xx days after application (drench, systemic action, persistence). As to the method:
(§1) Six weeks old pepper plants cultivated in field soil are treated as drench application at various rates (mg a.i./liter soil). The same day, plants are infested with a mixed population of M. persicae and incubated in the greenhouse under optimal greenhouse conditions. Samples are assessed 7 days after infestation on mortality. Treated plants are re-infested 7, 14, 21 and 28 days after application. Evaluation is always done 7 days after infestation. Plants are also checked for damage (phytotoxicity), visual assessment being made using a 0-100% rating scale (100%=total damage to plant; 0%=no damage to plant).

The test system of another data set is pepper plants. The settings on record: in vivo. On the procedure: as §1
Data set [2] concerns Thrips Tabaci (onion thrips). Nature of the data set: Example B3: Thrips tabaci, mixed population, feeding/residual contact activity, preventive. The data set is classed as in vivo. The settings on record: foliar, 144 h, sunflower leaf discs sprayed, 6 days incubation, mortality.
The test system of data set [3] is Tetranychus urticae (two-spotted spider mite). Briefly: Example B4: Tetranychus urticae, mixed population, feeding/residual contact activity, preventive. Type of data set: in vivo. The settings on record: foliar, 192 h, bean leaf discs sprayed, 8 days, egg, larval and adult mortality. The source says: Activity Against Tetranychus urticae (Two-Spotted Spider Mite) (Mixed Population, Feeding/Residual Contact Activity, Preventive) Bean leaf discs on agar in 24-well microtiter plates are sprayed with test solutions. […] 8 days later, discs are checked for egg mortality, larval mortality, and adult mortality.

Data set [4] relates to Nilaparvata lugens (brown rice planthopper). Briefly: Example B8: Nilaparvata lugens, larvicide, feeding/contact. The data set is classed as in vivo. The settings on record: rice seedlings sprayed, N3 nymphs, 6-12 days after treatment. As to the method: Activity Against Nilaparvata lugens (Brown Rice Planthopper) (Larvicide, Feeding/Contact) Rice seedlings are treated with the diluted test solutions in a spray chamber. After drying, they are infested with 20 N3 nymphs (2 replicates). 6-12 days after the treatment samples are checked for mortality, growth regulation, and effects on the F1 generation.

Data set [5] has as its system Aphis craccivora (cowpea aphid). Briefly: Example B10: Aphis craccivora, mixed population, systemic/feeding. Conditions: 144 h, roots of infested pea seedlings in test solution, 6 days, mortality. Type of data set: in vivo. The source says:
6 days later, samples are checked for mortality.

The test system is the same in data set [6]. Briefly: Example B11: translaminar activity against Aphis craccivora. Conditions: 120 h, French bean leaves, aphids on lower side, upper side painted, 5 days, mortality. Type of data set: in vivo. On the procedure: Translaminar Activity Against Aphis craccivora (Cowpea Aphid) French bean leaves (Phaseolus vulgaris) are infested with about 20 mixed age individuals on the lower leaf side using clip cages. 1 day after the infestation, the upper side of the leaves is treated with the test solution by painting. 5 days later, samples are checked for mortality.

Data set [7] relates to Myzus persicae (green peach aphid). Briefly: Example B13: drench activity against Myzus persicae. Type of data set: in vivo. The settings on record: 168 h, pea seedlings in field soil, 7 days after infestation, mortality. As to the method: Drench Activity Against Myzus persicae (Green Peach Aphid) Pea seedlings cultivated in field soil are treated as drench application and infested with a mixed population of M. persicae. 7 days after infestation, samples are checked for mortality.

For data set [8], the system named is Aphis craccivora (cowpea aphid). Nature of the data set: Example B15: Aphis craccivora, mixed population, adjuvant effect, curative. The settings on record: for Abbott's efficacy (%) against Aphis craccivora: 3 ppm, formulated as EC050, adjuvant 0.1% (v/v) where named, broad bean plants, 7 days after treatment. The data set is classed as in vivo. As to the method:
One day after infestation, plants are treated with diluted test solutions of the compound formulated as EC050 in a spray chamber (4 replicates). […] Efficacy was calculated with the aid of Abbott's formula.

Data set [9] has as its system Myzus persicae (green peach aphid). Nature of the data set: Example B16: Myzus persicae on pepper plants, feeding/residual contact activity. Type of data set: in vivo. Conditions: 144 h, infested pepper plants sprayed, 6 days after treatment, mortality, read-out: activity against Myzus persicae.
Data set [10] shares this test system. Briefly: Example B2: Myzus persicae, mixed population, systemic/feeding activity, curative. Conditions: 144 h, read-out: activity.
The test system is the same in data set [11]. Nature of the data set: Example B1: Myzus persicae, mixed population, feeding/residual contact activity, preventive. The settings on record: foliar, 144 h, read-out: activity.
The mark [12] stands for this setting: 0 days after application (infestation day; evaluated 7 days after infestation).
Where [13] appears, read: 14 days after application (re-infestation; evaluated 7 days after infestation).
Setting [14] is: 21 days after application (re-infestation; evaluated 7 days after infestation).
Where [15] appears, read: 28 days after application (re-infestation; evaluated 7 days after infestation).
The mark [16] stands for this setting: 168 h, 7 days after application (re-infestation; evaluated 7 days after infestation).

Read-outs that look alike come from different tables or passages of the source.

As a reminder, the mortality is the share of the test organisms that died. As for `CCOC(=O)OC1=C(c2c(C)cc(C)cc2C)C(=O)NC12CCN(OC)CC2` [A18, reference compound], the mortality at 12.5 ppm in data set [1] (setting [12]) came out at 100%; in data set [1] (setting [13]), 98%; in [1] (setting [14]), 95%; in data set [1] (setting [15]), 95%; in data set [1] (setting [16]), 100%. The “plant compatibility on pepper plants (in words)” value in the data set with pepper plants is recorded as “damages these to an untolerable high extend”.

For the compound `CCOC(=O)OC1=C(c2c(C)cc(C)cc2C)C(=O)N(C)C12CCN(OC)CC2` [P1.2, Carbonic acid ethyl ester 8-methoxy-1-methyl-2-oxo-3-(2,4,6-trimethyl-phenyl)-1,8-diaza-spiro[4.5]dec-3-en-4-yl ester], the pest or weed control at 400 ppm in data set [2], in [3], in data set [4], in data set [5], in data set [6] and in data set [10] was above 80% each time. Further, the pest or weed control at 400 ppm in [11] was above 80%. The same compound gave a pest or weed control at 25 ppm in [7] above 80%. The mortality at 12.5 ppm in data set [1] (setting [12]) was determined as 98%; in data set [1] (setting [13]) it was 98%; in data set [1] (setting [14]), 100%; in data set [1] (setting [15]), 98%; in data set [1] (setting [16]) it was 98%. Further, the “insecticidal action on Myzus persicae (in words)” value in data set [1] (summary of Table B14, drench) is recorded as “very similar to the action of the compound of the state of the art”. Besides, in the data set with pepper plants, the “plant compatibility on pepper plants (in words)” value was “no damage at all”. The “Abbott's efficacy (%) against Aphis craccivora” value in [8] (Table B15A) amounted to 54%; in data set [8] (Table B15B) it was 25%. Further, the “effect of adjuvants on insecticidal activity (in words)” value in data set [8] (summary of Tables B15A and B15B) was “enhance the insecticidal activity of compound P1.2 significantly”. In [9], the pest or weed control at 200 ppm was at least 80%.

Regarding `CCOC(=O)OC1=C(c2c(C)cc(C)cc2C)C(=O)N(COC)C12CCN(OC)CC2` [P1.3], the pest or weed control at 400 ppm in [2], in data set [3], in data set [4], in data set [5], in [6] and in data set [10] was above 80% throughout. In addition, the pest or weed control at 400 ppm in data set [11] is above 80%. In addition, the pest or weed control at 25 ppm in [7] is above 80%.

In the case of `CCOCN1C(=O)C(c2c(C)cc(C)cc2C)=C(OC(=O)OCC)C12CCN(OC)CC2` [P1.4], the pest or weed control at 400 ppm in data set [4], in data set [5], in data set [6], in data set [10] and in [11] was above 80% throughout. This compound also registered a pest or weed control at 25 ppm in data set [7] above 80%. In addition, the pest or weed control at 200 ppm in data set [9] was at least 80%.

As to `CCOC(=O)OC1=C(c2c(C)cc(C)cc2Br)C(=O)N(C)C12CCN(OC)CC2` [P1.11], the pest or weed control at 400 ppm in data set [4], in data set [5], in [6], in [10] and in data set [11] was above 80% throughout. In data set [7], this compound yielded a pest or weed control at 25 ppm above 80%. The pest or weed control at 200 ppm in data set [9] was at least 80%.

With `CCOC(=O)OC1=C(c2c(C)cc(C)cc2C)C(=O)N(COCCOC)C12CCN(OC)CC2` [P1.18], the pest or weed control at 400 ppm in data set [2], in data set [3], in data set [4], in [5], in [6] and in data set [10] was above 80% throughout. The pest or weed control at 400 ppm in [11] was above 80%. The pest or weed control at 25 ppm in data set [7] is above 80%.

Turning to `CON1CCC2(CC1)C(O)=C(c1c(C)cc(C)cc1C)C(=O)N2C` [P2.2, 4-hydroxy-8-methoxy-1-methyl-3-(2,4,6-trimethyl-phenyl)-1,8-diaza-spiro[4.5]dec-3-en-2-one], the pest or weed control at 400 ppm in [2], in [3], in data set [4], in data set [5], in data set [6] and in [10] was above 80% each time. The pest or weed control at 400 ppm in data set [11] is above 80%. The pest or weed control at 25 ppm in data set [7] is above 80%. For the same compound, the pest or weed control at 200 ppm in data set [9] is at least 80%.

Take `COCN1C(=O)C(c2c(C)cc(C)cc2C)=C(O)C12CCN(OC)CC2` [P2.6]: the pest or weed control at 400 ppm in [2], in data set [3], in data set [4], in data set [5], in data set [6] and in data set [10] was above 80% each time. Further, the pest or weed control at 400 ppm in [11] is above 80%. The compound further showed a pest or weed control at 25 ppm in [7] above 80%. The pest or weed control at 200 ppm in [9] was at least 80%.

With `CON1CCC2(CC1)C(O)=C(c1c(C)cc(C)cc1Br)C(=O)N2C` [P2.14], the pest or weed control at 400 ppm in [3], in data set [4], in [5], in data set [6] and in [11] was above 80% in each case. For the same compound, the pest or weed control at 25 ppm in data set [7] is above 80%.

As for `COCCOCN1C(=O)C(c2c(C)cc(C)cc2C)=C(O)C12CCN(OC)CC2` [P2.19], the pest or weed control at 400 ppm in data set [2], in data set [3], in data set [4], in data set [5], in data set [6] and in data set [10] was above 80% in each case. For the same compound, the pest or weed control at 400 ppm in data set [11] is above 80%. In data set [7], this compound yielded a pest or weed control at 25 ppm above 80%.
